Experimental data: US12186319B2, “Crosslinked polymer nanoparticles for targeted cellular uptake and therapeutics, and compositions and methods thereof” (University of Massachusetts, priority 2017, dated 2025)

Assay: Encapsulation of drug within HA-decorated nanoparticles (FIG. 1, visual)
Type: physicochemical
Settings: FIG. 1B/1C, colour of solution
Procedure: The dye is however stably encapsulated in crosslinked HA-decorated nanoparticles (right).
MTX and MMTX encapsulation: A suspension of modified HA (1 mg/mL), crosslinker (2 mg/mL) and Irgacure 2959 (0.5 mg/mL) in water (1 mL) was stirred at RT for 30 mins and purged with argon for 10 mins. To this solution, MTX (100 μL, 6 mg/mL) or MMTX (100 μL, 6 mg/mL) or DMSO 100 μL (control) was added. The reaction mixture was exposed to UV irradiation for 10 min. Afterwards, the free drug was removed by dialyzing the solution against DI water for 48 h and filtered through a hydrophilic membrane (pore size: 0.45 μm). The resulting solution was used to estimate the size of the drug loaded PNPs using dynamic light scattering.

## CN(Cc1cnc2nc(N)nc(N)c2n1)c1ccc(C(=O)N[C@@H](CCC(=O)O)C(=O)O)cc1 [MTX, Methotrexate]
  encapsulation within HA-decorated nanoparticles: no encapsulation is discernible
